# Measured values as given in patent publication US8133692B2, “Methods of predicting responsiveness to chemotherapeutic agents and selecting treatments” (University of South Florida, priority 2005, dated 2012).
# e = 2'-O-(2-methoxyethyl) (MOE); d = 2'-deoxy (DNA)
# What was measured:
# Assay type in all cases: cell-based, human
# phosphorylated Stat3 = assay: Western blot for phosphorylated Stat3 after gefitinib in NSCLC cells; conditions: 24 hours
# Method: (§1) Protein expression analysis. Cell lysates were normalized for total protein content (50 μg) and subjected to SDS-PAGE as described by Song et al., Oncogene 22:4150-65 (2003). Primary antibodies used in these studies consisted of Stat3 (Transduction Laboratories; BD Biosciences, Mississauga, Ontario, Canada), pStat3 Y705 (Cell Signaling Technology), cleaved poly (ADP-ribose) polymerase (Cell Signaling Technology, Beverly, Mass.), Mcl-1 (Santa Cruz Biotechnology, Santa Cruz, Calif.), Bcl-2 (DAKO, Carpinteria, Calif.), Bcl-xL (PharMingen, San Diego, Calif.), and β-actin (Sigma-Aldrich, Milwaukee, Wis.). Detection of proteins was accomplished using horseradish peroxidase-conjugated secondary antibodies and enhanced chemiluminescence purchased through Amersham Biosciences (Pittsburgh, Pa.).
# MDA-MB-435s cells [1] = assay: IL-6 stimulation: Western blot for phosphor-Stat3 and Survivin; conditions: IL-6 treatment, after 48 hours
# Method: (§2) Western blot analyses. Cells were lysed in a buffer containing 10 mmol/L Tris-HCl (pH 8.0), 150 mmol/L NaCl, 1% NP40, 0.5% sodium deoxycholate, 0.1% SDS, 1 mmol/L EDTA (pH 8.0), 2 mmol/L phenylmethylsulfonyl fluoride, 2 μg/mL aprotinin, 2 μg/mL leupeptin, and 1 mmol/L Na3VO4. For Western blot analyses, 30 μg of total extracted proteins were applied per lane before SDS-PAGE. Following transfer to nitrocellulose membranes, protein expression levels were detected using polyclonal anti-poly-(ADP-ribose) polymerase antibodies (Cell Signaling Technology, Beverly, Mass.). The expression of β-actin (Sigma-Aldrich, St. Louis, Mo.) was used as a normalization control for protein loading.
# To investigate whether cytokine-induced Stat3 activity correlates with increased Survivin expression in breast cancer cells, cells were stimulated with IL-6 to increase Stat3 activation. For IL-6 stimulation, cells were serum-starved (DMEM supplemented with 0.1% fetal bovine serum) for 18 hours before IL-6 treatment (20 or 30 ng/mL in DMEM) for 30 minutes (EMSA) or 48 hours (Western blot analysis). Nuclear extracts and cell lysates were prepared for EMSA and Western blot analysis, respectively, as described above.
# Stat3 [2] = assay: IL-6 stimulation: EMSA of Stat3 DNA-binding activity; conditions: serum-starved MDA-MB-435s cells; IL-6 20 or 30 ng/mL; within 30 minutes
# Method: Nuclear extract preparation and EMSA. Nuclear extracts were prepared as previously described by Yu et al., Science 269:81-83 (1995), which is incorporated herein by reference, by high-salt extraction into 30 to 70 μL buffer [20 mmol/L HEPES (pH 7.9), 420 mmol/L NaCl, 1 mmol/L EDTA, 20% glycerol, 20 mmol/L NaF, 1 mmol/L Na3VO4, 1 mmol/L Na4P2O7, 1 mmol/L DTT, 0.5 mmol/L phenylmethylsulfonyl fluoride, 0.1 μmol/L aprotinin, 1 μmol/L leupeptin, and 1 μmol/L antipain]. For EMSA, 5 μg of total nuclear protein were used for each lane. EMSA was done using a ^32P-labeled oligonucleotide probe containing a high-affinity cis-inducible element (hSIE, m67 variant) derived from the c-fos gene promoter (sense strand 5′[…]-3′) (SEQ ID NO: 3) that binds activated Stat3 proteins. Following incubation of radiolabeled probes with nuclear extracts, protein-DNA complexes were resolved by nondenaturing PAGE and detected by autoradiography. Stat3 protein was supershifted in the EMSA by preincubation with Stat3 antibody (C-20X, Santa Cruz Biotechnology, Santa Cruz, Calif.).
# To investigate whether cytokine-induced Stat3 activity correlates with increased Survivin expression in breast cancer cells, cells were stimulated with IL-6 to increase Stat3 activation. […]
# [3] = test system: H1650, H1975 and H1299 cells; assay: Western blot for Stat3, cleaved PARP and Bcl-2 family proteins after antisense Stat3 in NSCLC cells
# Method: as §1
# To determine if Stat3 plays a role in survival in EGFR mutant cells, antisense Stat3 oligonucleotides were used to down-regulate Stat3 as described above. […] Levels of the Bcl-2 family proteins Bcl-xL, Mcl-1, and Bcl-2 were reduced in cells treated with antisense Stat3 consistent with the known role of Stat3 in regulating these proteins (FIG. 9E).
# [4] = test system: MDA-MB-435s and MDA-MB-231 cells; assay: Cellular viability by trypan blue exclusion assay; conditions: after 24 or 48 hours of incubation
# Method: (§3) In situ terminal deoxyribonucleotidyl transferase-mediated dUTP nick end labeling and cellular proliferation assays. MDA-MB-435s and MDA-MB-231 cells were transfected with antisense or control mismatch oligonucleotides. After 48 hours, cells were labeled for apoptotic DNA strand breaks by terminal deoxyribonucleotidyl transferase-mediated dUTP nick end labeling (TUNEL) reaction using an in situ cell death detection assay (Roche Applied Science, Indianapolis, Ind.) according to the instructions of the supplier. TUNEL-positive nuclei were counted and the apoptotic index was expressed as the number of apoptotic cells in one microscopic field. To determine cellular viability, cells were harvested by trypsinization and counted by trypan blue exclusion assay at 24 and 48 hours after transfection. All experiments were done in triplicate.
# Stat3 mRNA = assay: RNase protection assay of Stat3 mRNA after transfection with antisense oligonucleotides; conditions: MDA-MB-435s cells; compared with the mismatch oligonucleotides; 24 and 36 hours after transfection
# Method: (§4) The human breast cancer cell line MDA-MB-435s, harbors activated Stat3. The cells were grown in DMEM supplemented with 10% fetal bovine serum, 100 units/mL penicillin, and 100 μg/mL streptomycin. The cells were transfected with Stat3 antisense or mismatch oligonucleotides using Lipofectamine-Plus as described by the supplier (Life Technologies, Grand Island, N.Y.). The Stat3 antisense (5′[…]-3′) (SEQ ID NO: 1) and control mismatch (5′[…]-3′) (SEQ ID NO: 2) oligonucleotides were synthesized using phosphorothioate chemistry. To increase stability, oligonucleotides were synthesized with 2′-O-methoxyethyl modification of the five or three underlined terminal nucleotides. The final concentration for Stat3 antisense and control mismatch oligonucleotides was […]. Twenty-four and 36 hours after transfection, the mRNA levels and DNA-binding activities of Stat3 were measured by RNase protection and electrophoretic mobility shift (EMSA) assays, respectively.
# RNase protection assay. Total RNA was isolated from MDA-MB-435s cells using the RNAeasy mini kit (Qiagen, Valencia, Calif.). RNase protection assays were carried out with the Riboquant hStress-1 template set containing Bcl-xL and Mcl-1 probes or custom-made multiprobe templates containing Stat3 probes (BD PharMingen, San Diego, Calif.). […]
# Survivin = assay: RNase protection assay and Western blot for Survivin after Stat3 antisense
# Method: RNase protection assay. Total RNA was isolated from MDA-MB-435s cells using the RNAeasy mini kit (Qiagen, Valencia, Calif.). RNase protection assays were carried out with the Riboquant hStress-1 template set containing Bcl-xL and Mcl-1 probes or custom-made multiprobe templates containing Stat3 probes (BD PharMingen, San Diego, Calif.). Briefly, the multiprobe templates were synthesized by in vitro transcription with incorporation of […] and purified on Quick Spin RNA columns (Roche Applied Science, Indianapolis, Ind.). Labeled probe (1×10^6 cpm) was hybridized with 10 μg of total RNA through a temperature gradient of 90° C. to 56° C. over a 16-hour period. […]
# Western blot analyses. […] Following transfer to nitrocellulose membranes, protein expression levels were detected using polyclonal anti-poly-(ADP-ribose) polymerase antibodies (Cell Signaling Technology, Beverly, Mass.). […]
# The microarray data were validated using an RNase protection assay using a Survivin probe (BD PharMingen, San Diego, Calif.) as described above. […] Protein expression levels were detected using polyclonal anti-Stat3 (Santa Cruz Biotechnology, Santa Cruz, Calif.) and polyclonal anti-Survivin (Alpha Diagnostics International, San Antonio, Tex.) antibodies.
# MDA-MB-435s cells [5] = assay: Microarray gene expression profiling after blockade of Stat3; conditions: 24 hours
# Method: Microarray gene expression profiling analyses were completed to assess the gene expression changes associated with blockade of Stat3 activity. Five micrograms of total RNA collected from MDA-MB-435s cells treated with antisense or control mismatch oligonucleotides for 24 hours served as the mRNA sources for microarray analysis. The poly(A) mRNA was specifically converted to cDNA and then amplified and labeled with biotin following the procedure initially described by Van Gelder et al., Proc. Natl. Acad. Sci. USA 87:1663-67 (1990) which is incorporated herein by reference. Hybridization with the biotin-labeled DNA, staining, and scanning of the microarray chips followed the prescribed procedure outlined in the Affymetrix technical manual.
# The oligonucleotide probe arrays were Human Genome U133A chips (Affymetrix, Santa Clara, Calif.). Scanned output files were visually inspected for hybridization artifacts and then analyzed using Affymetrix Microarray MAS 5.0 software. The MAS 5.0 software identifies the increased and decreased genes between any two samples with a statistical algorithm that assesses the behavior of oligonucleotide probe sets designed to detect the same gene. Probe sets that yielded a change at P<0.0045 were identified as changed (increased or decreased). In addition, the data were processed using robust multiarray analysis as described by Bolstad et al., Bioinformatics 19:185-93 (2003) which is incorporated herein by reference in its entirety. […] Empirical estimates of the null distribution were determined using permutation analysis, thereby controlling the number of false positives. The significance analysis of microarrays (as described by Tusher et al., Proc Natl Acad Sci USA 98:5116-21 (2001), which is incorporated herein by reference) implements this approach to address the multiple testing problem and was also applied to the data analysis.
# [6] = test system: MDA-MB-435s and MDA-MB-231 cells; assay: Apoptosis assays (microscopy, in situ TUNEL, PARP cleavage Western blot) in breast cancer cells
# Method: To assess whether apoptosis was occurring in the cells after blocking of Stat3 the cells were examined microscopically and a TUNEL assay and poly-(ADP)-ribose polymerase (PARP) cleavage assay were performed.
# as §3, §2
# Stat3 [7] = assay: EMSA of Stat3 DNA-binding activity after antisense transfection; conditions: MDA-MB-435s cells, 24 and 36 hours after transfection
# Method: as §4
# Nuclear extract preparation and EMSA. […] Following incubation of radiolabeled probes with nuclear extracts, protein-DNA complexes were resolved by nondenaturing PAGE and detected by autoradiography. […]
# [8] = Survivin antisense 300 nmol/L, MDA-MB-435s and MDA-MB-231 cells
compound,measurement,setting,value
"COc1cc2ncnc(Nc3ccc(F)c(Cl)c3)c2cc1OCCCN1CCOCC1 [gefitinib, Gefitinib]",phosphorylated Stat3,phosphorylated Stat3; H1650 cells with the L746-p753 deletion mutation in EGFR,no effect on phosphorylated Stat3
same,phosphorylated Stat3,phosphorylated Stat3; H1975 cells,no effect on phosphorylated Stat3
same,phosphorylated Stat3,"phosphorylated Stat3; H3255 cells with the L858R mutation in EGFR, increasing doses",complete inhibition of phosphorylated Stat3
"IL-6: interleukin-6, cytokine used to stimulate cells and increase Stat3 activation",Survivin protein expression (Western blot),MDA-MB-435s cells [1],induced
same,phosphor-Stat3 levels (Western blot),MDA-MB-435s cells [1],induced
same,Stat3 DNA-binding activity (EMSA),Stat3 [2],increases Stat3 DNA-binding activity
"Stat3 antisense: Stat3 antisense 5′GCTCCAGCATCTGCTGCTTC-3′ (SEQ ID NO: 1), phosphorothioate chemistry with 2′-O-methoxyethyl modification of terminal nucleotides (sugars from the 5' end e5 d10 e5, all phosphorothioate, methylation of C not given here; listed as Homo sapiens)",apoptosis,"[3]; H1299 cells, despite Stat3 knock-down",No apoptosis was observed
same,Stat3 protein levels,[3]; H1650 and H1975 cells,decreased Stat3 protein levels
same,cleavage of poly(ADP-ribose) polymerase indicative of apoptosis,[3]; H1650 and H1975 cells,cleavage of poly(ADP-ribose) polymerase
same,"Levels of the Bcl-2 family proteins Bcl-xL, Mcl-1, and Bcl-2",[3]; cells treated with antisense Stat3 vs mismatch control,reduced
same,growth inhibition by trypan blue exclusion,[4],induced significant growth inhibition
same,Stat3 mRNA expression,Stat3 mRNA,diminished Stat3 mRNA expression
same,mRNA expression of Survivin (RNase protection assay),Survivin; antisense oligonucleotide-treated breast cancer cells,decrease in mRNA expression of Survivin
same,Survivin protein expression (Western blot),Survivin; breast cancer cells,decreased Survivin expression
same,expression of Bcl-2 family proteins by microarray analysis,MDA-MB-435s cells [5],did not reveal consistent decreases
same,"expression of other IAP family members (X-linked IAP, cellular IAP-1, cellular IAP-2) by microarray",MDA-MB-435s cells [5],no change
same,expression of Survivin by microarray analysis,MDA-MB-435s cells [5]; antisense vs control mismatch,found to be diminished
same,apoptosis by in situ TUNEL assay,"[6]; Stat3 antisense, 48 hours",occurrence of apoptosis was confirmed
same,cleavage of poly-(ADP-ribose) polymerase,"[6]; Stat3 antisense, 48 hours after treatment",cleavage of poly-(ADP-ribose) polymerase
same,vacuolated cells and cellular debris (light microscopy),[6]; incubation for up to 48 hours,marked increase in vacuolated cells and cellular debris
same,Stat3 DNA-binding activity,Stat3 [7],significant decrease in Stat3 DNA-binding activity
"antisense oligonucleotides directed against Survivin: Antisense oligonucleotides directed against Survivin 5′-CCCAGCCTTCCAGCTCCTTG-3′ (SEQ ID NO: 4), synthesized using phosphorothioate chemistry (sugars from the 5' end e3 d14 e3, all phosphorothioate, methylation of C not given here; listed as Homo sapiens)",Poly-(ADP-ribose) polymerase cleavage,[6]; [8],evident
same,in situ TUNEL staining,[6]; [8],evident
